Data taken from US4336243A, “Transdermal nitroglycerin pad” (G. D. Searle & Co., priority 1981, dated 1982).

Key:
[1] = Effect of added hydrophobic solvents on nitroglycerin transport and delivery; settings: miglyol oil 812 and isopropyl palmitate alone, or with mineral oil, added to the hydrophilic solvent system in the polymer matrix
[2] = Percutaneous absorption of C^14 nitroglycerin, neat liquid application (urinary radioactivity); assay type: in vivo, rhesus monkey (Macaca mulata); settings: for Percent Dose Absorbed (Mean + SEM): neat liquid
Experimental: Studies to determine the topical availability of nitroglycerin were carried out in vivo with the rhesus monkey (Macaca mulata).
The animals were placed in metabolism chairs for the length of time of the dose application. Urine was collected while the animals were still in the metabolism chairs. After the dose was removed, the animals were moved to a metabolism cage for continued urine collection.
Nitroglycerin, labeled with carbon-14, was applied to the skin. The site of application can be any part of the body; however, the ventral forearm or upper part of the inner arm was used for convenience. The area of application is generally small, i.e., 2-10 cm^2; however, any area can be used. The final concentration is expressed as an amount per unit area of skin (i.e. 1.0 mg/1 cm^2).
In the case of liquid, cream or ointment formulations, the dose was spread over the exact skin area. In the case of the pads of the present invention, they were taped to the skin. In the case of liquids, cream or ointments, the treated area was covered with aluminum foil and tape. In all cases, the tape and foil and where applicable the nitroglycerin pads were removed after 24 hours and the site of application was wiped three times with gauze soaked with ethanol, then washed with soap and water.
Absorption is quantified on the basis of the percent of radioactivity excreted in urine for 3 days following application of a known amount of the labeled nitroglycerin to the skin. Daily urinary excretion values are collected for excretion of radioactivity by other routes and retention of radioactivity in the body by the administration of an intravenous dose of C^14 -labeled nitroglycerin according to the following formula: [formula]
In the case of C^14 -labeled nitroglycerin applied via the nitroglycerin pad of the present invention, the device can be removed from the skin and analyzed for residual radioactivity. The amount of radioactivity which has been removed from the device, by comparative assays with devices not applid to skin, is considered to have been released in vivo during the time of skin application. Analysis for radioactivity can be conducted using any commercially available liquid scintillation counter. To determine the amount of radioactivity in this study, 1.0 ml of radioactive urine was mixed with scintillation fluid (10 ml of PCS solubilizer, Amersham Corporation, Arlington Heights, Ill.). The urine mixed with scintillant is counted for radioactivity in a liquid scintillation counter and the amount of radioactivity determined.

## O=[N+]([O-])OCC(CO[N+](=O)[O-])O[N+](=O)[O-] [C^14 Nitroglycerin, nitroglycerin]
[1]
  drug delivery: increased
  drug transport: greatly enhanced
[2]; topical concentration 0.01 mg/cm^2, 24 hours
  Percent Dose Absorbed (Mean + SEM): 41.8 ± 3.2%
[2]; topical concentration 0.1 mg/cm^2, 24 hours
  Percent Dose Absorbed (Mean + SEM): 43.5 ± 3.3%
[2]; topical concentration 1.0 mg/cm^2, 24 hours
  Percent Dose Absorbed (Mean + SEM): 36.6 ± 3.7%
[2]; topical concentration 7.0 mg/cm^2, 24 hours
  Percent Dose Absorbed (Mean + SEM): 22.6 ± 4.2%
[2]; topical concentration 10.0 mg/cm^2, 24 hours
  Percent Dose Absorbed (Mean + SEM): 7.8 ± 0.7%
[2]; topical concentrations of 7 and 10 mg/cm^2
  absorption: decreased absorption
[2]; topical, neat nitroglycerin
  maximum optimum dosage for good bioavailability: 5 mg/cm^2
